From patent US20230286970A1, “NOVEL OXADIAZOLE-BASED SELECTIVE HDAC6 INHIBITORS” (ITALFARMACO S.P.A., priority 2020, published 2023)

Tests used:
recombinant human HDAC1 = recombinant human HDAC1 (Homo sapiens (Human), UniProt Q13547); test: Enzymatic screening, HDAC1 inhibition (fluorogenic FdL_G substrate); format: biochemical
Outline: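 Recombinant human HDAC1 inhibition was measured fluorometrically using the FLUOR DE LYS-Green (FdL_G) substrate. Compounds at 8 doses (1% DMSO final) in Tris-HCl pH 8 buffer with NaCl, Tween-20 and glycerol were preincubated in triplicate with enzyme and 1 mg/mL BSA, then given substrate. Developer I plus 2 μM TSA was added, and fluorescence read after 25 minutes in the dark.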

recombinant human HDAC6 = recombinant human HDAC6 (Homo sapiens (Human), UniProt Q9UBN7); test: Enzymatic screening, HDAC6 inhibition (fluorogenic FdL_G substrate); format: biochemical
Outline: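 Enzyme was preincubated with compound (8 doses, triplicate, 1% DMSO) in 25 mM Tris-HCl pH 8, 130 mM NaCl, 0.05% Tween-20, 10% glycerol, with BSA. A FLUOR DE LYS-Green substrate was then added, and fluorescence was read after developer plus 2 μM TSA.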

Chain of recombinant human HDAC1 (Q13547 whole entry): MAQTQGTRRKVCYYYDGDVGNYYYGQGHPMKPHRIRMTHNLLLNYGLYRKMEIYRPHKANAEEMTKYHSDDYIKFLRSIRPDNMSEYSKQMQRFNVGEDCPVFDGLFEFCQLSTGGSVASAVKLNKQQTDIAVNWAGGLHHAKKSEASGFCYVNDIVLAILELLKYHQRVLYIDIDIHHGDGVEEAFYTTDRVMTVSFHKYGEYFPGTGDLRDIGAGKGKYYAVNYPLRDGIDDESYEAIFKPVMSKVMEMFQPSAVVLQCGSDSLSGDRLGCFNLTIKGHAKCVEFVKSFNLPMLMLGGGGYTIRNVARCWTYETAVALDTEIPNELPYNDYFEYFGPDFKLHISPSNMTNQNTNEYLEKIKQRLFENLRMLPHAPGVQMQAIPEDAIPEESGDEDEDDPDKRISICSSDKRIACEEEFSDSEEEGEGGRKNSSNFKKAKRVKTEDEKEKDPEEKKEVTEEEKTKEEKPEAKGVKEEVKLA
Chain of recombinant human HDAC6 (Q9UBN7 whole entry): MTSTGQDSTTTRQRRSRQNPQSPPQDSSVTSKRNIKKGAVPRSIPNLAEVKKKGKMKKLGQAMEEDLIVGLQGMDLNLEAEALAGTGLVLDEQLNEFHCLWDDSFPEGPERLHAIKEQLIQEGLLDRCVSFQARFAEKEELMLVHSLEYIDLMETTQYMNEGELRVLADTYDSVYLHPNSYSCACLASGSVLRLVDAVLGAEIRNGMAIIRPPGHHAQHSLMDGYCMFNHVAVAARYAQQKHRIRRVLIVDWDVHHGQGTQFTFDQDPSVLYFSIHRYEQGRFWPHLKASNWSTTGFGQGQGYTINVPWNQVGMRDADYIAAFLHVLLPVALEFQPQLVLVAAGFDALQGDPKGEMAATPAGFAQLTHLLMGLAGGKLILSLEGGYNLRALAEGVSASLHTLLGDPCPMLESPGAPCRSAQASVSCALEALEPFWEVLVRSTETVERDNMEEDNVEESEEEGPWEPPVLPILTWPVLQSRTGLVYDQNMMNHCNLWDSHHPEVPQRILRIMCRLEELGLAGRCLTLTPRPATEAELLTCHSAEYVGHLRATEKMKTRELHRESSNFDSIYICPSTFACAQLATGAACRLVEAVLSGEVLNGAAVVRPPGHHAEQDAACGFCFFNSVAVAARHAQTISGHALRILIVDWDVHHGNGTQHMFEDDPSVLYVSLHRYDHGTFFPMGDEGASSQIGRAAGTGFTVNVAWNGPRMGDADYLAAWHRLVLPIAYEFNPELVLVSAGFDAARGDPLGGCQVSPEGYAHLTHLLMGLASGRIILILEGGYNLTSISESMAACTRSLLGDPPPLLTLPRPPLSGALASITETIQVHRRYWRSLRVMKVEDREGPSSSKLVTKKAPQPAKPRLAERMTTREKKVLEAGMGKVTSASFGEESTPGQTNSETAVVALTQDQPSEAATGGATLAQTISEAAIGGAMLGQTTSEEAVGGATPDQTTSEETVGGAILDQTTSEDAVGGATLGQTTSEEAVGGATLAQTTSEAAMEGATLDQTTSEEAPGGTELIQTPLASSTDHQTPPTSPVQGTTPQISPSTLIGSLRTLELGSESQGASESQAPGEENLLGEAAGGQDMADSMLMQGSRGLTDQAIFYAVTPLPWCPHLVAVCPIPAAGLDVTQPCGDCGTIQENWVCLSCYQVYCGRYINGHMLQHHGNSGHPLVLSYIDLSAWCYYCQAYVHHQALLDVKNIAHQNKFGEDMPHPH

IC50 (recombinant human HDAC1)	IC50 (recombinant human HDAC6)	Compound
> 200 µM	172 nM	O=C(Nc1cccc(-c2cnn(Cc3ccc(-c4nnc(C(F)F)o4)cc3)c2)c1)N1CCOCC1 [compound 227, N-(3-(1-(4-(5-(difluoromethyl)-1,3,4-oxadiazol-2-yl)benzyl)-1H-pyrazol-4-yl)phenyl)morpholine-4-carboxamide]
1000 µM	99 nM	Nc1ncc2cc(-c3nnn(Cc4cc(F)c(-c5nnc(C(F)F)o5)cc4F)n3)ccc2n1 [compound 423, 6-(2-(4-(5-(difluoromethyl)-1,3,4-oxadiazol-2-yl)-2,5-difluorobenzyl)-2H-tetrazol-5-yl)quinazolin-2-amine]
> 1000 µM	18 nM	CC1(C)C(=O)Nc2ccc(-c3cn(Cc4ccc(-c5nnc(C(F)F)o5)cn4)nn3)cc21 [compound 324, 5-[1-[[5-[5-(difluoromethyl)-1,3,4-oxadiazol-2-yl]pyridin-2-yl]methyl]triazol-4-yl]-3,3-dimethyl-1H-indol-2-one]
> 1000 µM	41 nM	Nc1ccc(-c2cn([C@@H](CN3CCCC3)c3ccc(-c4nnc(C(F)F)o4)cc3)nn2)cn1 [compound 312, 5-[1-[(1R)-1-[4-[5-(difluoromethyl)-1,3,4-oxadiazol-2-yl]phenyl]-2-pyrrolidin-1-ylethyl]triazol-4-yl]pyridin-2-amine]
> 200 µM	63 nM	FC(F)c1nnc(-c2ccc(Cn3nnc(-c4ccc(N5CCNCC5)nc4)n3)cc2)o1 [compound 148, 2-(difluoromethyl)-5-(4-((5-(6-(piperazin-1-yl)pyridin-3-yl)-2H-tetrazol-2-yl)methyl)phenyl)-1,3,4-oxadiazole]
1000 µM	46 nM	Nc1ncnc2sc(-c3cn(Cc4ccc(-c5nnc(C(F)F)o5)cc4F)nn3)cc12 [compound 416, 6-[1-({4-[5-(difluoromethyl)-1,3,4-oxadiazol-2-yl]-2-fluorophenyl}methyl)-1H-1,2,3-triazol-4-yl]thieno[2,3-d]pyrimidin-4-amine]
84.4 µM	47 nM	Cn1c(N)nc2cc(-c3cn(Cc4ccc(-c5nnc(C(F)F)o5)cc4Cl)nn3)ccc21 [compound 344, 5-[1-[[2-chloro-4-[5-(difluoromethyl)-1,3,4-oxadiazol-2-yl]phenyl]methyl]triazol-4-yl]-1-methylbenzimidazol-2-amine]
> 1000 µM	13 nM	Fc1cc(Cc2nc(-c3ccc(NC4=NCCN4)cc3)no2)ccc1-c1nnc(C(F)F)o1 [compound 383, N-(4-(5-(4-(5-(difluoromethyl)-1,3,4-oxadiazol-2-yl)-3-fluorobenzyl)-1,2,4-oxadiazol-3-yl)phenyl)-4,5-dihydro-1H-imidazol-2-amine]
> 1000 µM	26 nM	Cn1c(N)nc2cc(-c3cn(Cc4ccc(-c5nnc(C(F)F)o5)c(F)c4)nn3)ccc21 [compound 346, 5-[1-[[4-[5-(difluoromethyl)-1,3,4-oxadiazol-2-yl]-3-fluorophenyl]methyl]triazol-4-yl]-1-methylbenzimidazol-2-amine]
> 200 µM	118 nM	O=C1CCc2ccc(-c3nnn(Cc4ccc(-c5nnc(C(F)F)o5)cc4)n3)cc21 [compound 203, 6-(2-(4-(5-(difluoromethyl)-1,3,4-oxadiazol-2-yl)benzyl)-2H-tetrazol-5-yl)-2,3-dihydro-1H-inden-1-one]
> 200 µM	160 nM	FC(F)c1nnc(-c2ccc(Cn3cc(-c4ccc5cn[nH]c5c4)nn3)cc2)o1 [compound 222, 2-(4-((4-(1H-indazol-6-yl)-1H-1,2,3-triazol-1-yl)methyl)phenyl)-5-(difluoromethyl)-1,3,4-oxadiazole]
> 200 µM	99 nM	FC(F)c1nnc(-c2ccc(Cn3nnc(-c4cccc(-n5cccn5)c4)n3)cc2)o1 [compound 188, 2-(4-((5-(3-(1H-pyrazol-1-yl)phenyl)-2H-tetrazol-2-yl)methyl)phenyl)-5-(difluoromethyl)-1,3,4-oxadiazole]
> 200 µM	67 nM	Nc1nc2cc(-c3cn(Cc4ccc(-c5nnc(C(F)F)o5)cc4)cn3)ccc2s1 [compound 300, 5-(1-(4-(5-(difluoromethyl)-1,3,4-oxadiazol-2-yl)benzyl)-1H-imidazol-4-yl)benzo[d]thiazol-2-amine]
124 µM	52 nM	FC(F)c1nnc(-c2ccc(Cn3cnc(-c4ccc(NC5=NCCN5)cc4)c3)c(Cl)c2)o1 [compound 358, N-[4-[1-[[2-chloro-4-[5-(difluoromethyl)-1,3,4-oxadiazol-2-yl]phenyl]methyl]imidazol-4-yl]phenyl]-4,5-dihydro-1H-imidazol-2-amine]

Second part, the compound before the results:

Compound	IC50 (recombinant human HDAC1)	IC50 (recombinant human HDAC6)
Nc1nc2cc(-c3nnn(Cc4ccc(-c5nnc(C(F)F)o5)cc4)n3)ccc2o1 [compound 152, 5-(2-(4-(5-(difluoromethyl)-1,3,4-oxadiazol-2-yl)benzyl)-2H-tetrazol-5-yl)benzo[d]oxazol-2-amine]	> 200 µM	65 nM
CN1CC(C(=O)Nc2cccc(-c3cn(Cc4c(F)cc(-c5nnc(C(F)F)o5)cc4F)nn3)c2)C1 [Compd. 86, N-(3-(1-(4-(5-(difluoromethyl)-1,3,4-oxadiazol-2-yl)-2,6-difluorobenzyl)-1H-1,2,3-triazol-4-yl)phenyl)-1-methylazetidine-3-carboxamide]	> 200 µM	34 nM
Nc1nccc2cc(-c3nnn(Cc4ccc(-c5nnc(C(F)F)o5)cc4F)n3)ccc12 [compound 397, 6-[2-[[4-[5-(difluoromethyl)-1,3,4-oxadiazol-2-yl]-2-fluorophenyl]methyl]tetrazol-5-yl]isoquinolin-1-amine]	1000 µM	57 nM
CC(C)(C)OC(=O)N1CCC2(C1)C(=O)Nc1ccc(-c3cn(Cc4ccc(-c5nnc(C(F)F)o5)cc4)nn3)cc12 (stereo not shown) [compound 177, tert-butyl 5-(1-(4-(5-(difluoromethyl)-1,3,4-oxadiazol-2-yl)benzyl)-1H-1,2,3-triazol-4-yl)-2-oxospiro[indoline-3,3′-pyrrolidine]-1′-carboxylate]	> 200 µM	89 nM
CCNc1ncc2cc(-c3cn(Cc4cc(F)c(-c5nnc(C(F)F)o5)cc4F)nn3)ccc2n1 [compound 394, 6-[1-({4-[5-(difluoromethyl)-1,3,4-oxadiazol-2-yl]-2,5-difluorophenyl}methyl)-1H-1,2,3-triazol-4-yl]-N-ethylquinazolin-2-amine]	1000 µM	264 nM
Nc1nc2cc(-c3cn(Cc4ccc(-c5nnc(C(F)F)o5)cn4)cn3)ccc2s1 [compound 322, 5-[1-[[5-[5-(difluoromethyl)-1,3,4-oxadiazol-2-yl]pyridin-2-yl]methyl]imidazol-4-yl]-1,3-benzothiazol-2-amine]	> 1000 µM	17 nM
Nc1ccc(-c2nnn(Cc3c(F)cc(-c4nnc(C(F)F)o4)cc3F)n2)cn1 [compound 45, 5-(2-(4-(5-(difluoromethyl)-1,3,4-oxadiazol-2-yl)-2,6-difluorobenzyl)-2H-tetrazol-5-yl)pyridin-2-amine]	> 200 µM	20 nM
O=C(Nc1cncc(-c2nnn(Cc3ccc(-c4nnc(C(F)F)o4)cc3)n2)c1)N1CCOCC1 [compound 199, N-(5-(2-(4-(5-(difluoromethyl)-1,3,4-oxadiazol-2-yl)benzyl)-2H-tetrazol-5-yl)pyridin-3-yl)morpholine-4-carboxamide]	> 200 µM	109 nM
FC(F)c1nnc(-c2ccc(Cn3nnc(C4(c5ccccn5)CC4)n3)cc2)o1 [compound 147, 2-(difluoromethyl)-5-(4-((5-(1-(pyridin-2-yl)cyclopropyl)-2H-tetrazol-2-yl)methyl)phenyl)-1,3,4-oxadiazole]	> 200 µM	63 nM
FC(F)c1nnc(-c2ccc(Cn3nnc(-c4ccc(CN5CCCCC5)cc4)n3)cc2)o1 [compound 87, 2-(difluoromethyl)-5-(4-((5-(4-(piperidin-1-ylmethyl)phenyl)-2H-tetrazol-2-yl)methyl)phenyl)-1,3,4-oxadiazole]	> 200 µM	34 nM
CN(Cc1ccncc1)Cc1ccc(-c2cn(Cc3ccc(-c4nnc(C(F)F)o4)cc3)nn2)cc1 [compound 282, N-(4-(1-(4-(5-(difluoromethyl)-1,3,4-oxadiazol-2-yl)benzyl)-1H-1,2,3-triazol-4-yl)benzyl)-N-methyl-1-(pyridin-4-yl)methanamine]	> 200 µM	282 nM
CC(C)(C)OC(=O)NCC(=O)Nc1cccc(-c2cn(Cc3c(F)cc(-c4nnc(C(F)F)o4)cc3F)nn2)c1 [Compd. 172, tert-butyl (2-((3-(1-(4-(5-(difluoromethyl)-1,3,4-oxadiazol-2-yl)-2,6-difluorobenzyl)-1H-1,2,3-triazol-4-yl)phenyl)amino)-2-oxoethyl)carbamate]	> 200 µM	86 nM
Cn1c(N)nc2cc(-c3cn(Cc4ccc(-c5nnc(C(F)F)o5)cc4)cn3)ccc21 [compound 329, 5-[1-[[4-[5-(difluoromethyl)-1,3,4-oxadiazol-2-yl]phenyl]methyl]imidazol-4-yl]-1-methylbenzimidazol-2-amine]	> 1000 µM	27 nM
FC(F)c1nnc(-c2ccc(Cn3nnc(-c4cncc(Br)c4)n3)cc2)o1 [compound 82, 2-(4-((5-(5-bromopyridin-3-yl)-2H-tetrazol-2-yl)methyl)phenyl)-5-(difluoromethyl)-1,3,4-oxadiazole]	> 200 µM	33 nM
CC(C)(C)OC(=O)N1CCC2(CC1)C(=O)Nc1ccc(-c3cn(Cc4ccc(-c5nnc(C(F)F)o5)cc4)nn3)cc12 [compound 216, tert-butyl 5-(1-(4-(5-(difluoromethyl)-1,3,4-oxadiazol-2-yl)benzyl)-1H-1,2,3-triazol-4-yl)-2-oxospiro[indoline-3,4′-piperidine]-1′-carboxylate]	> 200 µM	151 nM
